{"source": "patent US20220249415A1", "about": "“COMPOSITION OF AZELAIC ACID HAVING ADIPOSE TRIGLYCERIDE HYDROLYSIS EFFECT” (Korea University Research and Business Foundation, priority 2018, published 2022)", "key": {"[1]": {"tested_on": "3T3-L1 adipocytes", "assay": "MTT assay, cytotoxicity of azelaic acid", "type": "cell-based, mouse", "details": "azelaic acid up to 500 μM, 24 hours", "method": "In order to evaluate cytotoxicity of azelaic acid, MTT assay was performed.\nThe MTT assay is a test method using an ability of mitochondria reducing MTT tetrazolium, a yellow water-soluble substrate, to a blue purple water-insoluble MTT formazane […]. An MTT reagent was prepared by diluting C18H16BrN5S (Thiazoly Blue Tetrazolium Bromide) in phosphate buffered saline (PBS) at a concentration of 2 to 5 mg/ml.\nFirst, after the 3T3-L1 adipocytes (4×10^5 cells/ml) were seeded in a 96-well plate and cultured at 37° C. under 5% CO2 conditions for 24 hours, the cultured 3T3-L1 adipocytes were treated with azelaic acid in a concentration range of 0 to 500 μM and cultured for 24 hours. After 100 μL of the MTT reagent was added to each test sample at a concentration of 4 mg/mL and cultured at 37° C. under 5% CO2 conditions for 4 hours, 100 μL of dimethyl sulfoxide (DMSO) was added thereto, and absorbance was measured at 540 nm. An absorbance value is to quantify an apoptotic effect due to toxicity using the principle that absorbance is in proportion to the number of living cells."}, "[2]": {"tested_on": "protein kinase A (PKA)", "assay": "PKA kinase activity in 3T3-L1 adipocytes", "type": "cell-based, mouse", "details": "azelaic acid 50 μM, 2 hours", "excerpt": "A representative protein regulating protein activities associated with signal transduction depending on a change in concentration of intracellular cAMP in the tissue cells is protein kinase A (PKA). Under general conditions, since an enzyme active site is blocked by a regulatory domain site of protein, a PKA activity is suppressed, but when the concentration of cAMP is increased, cAMP is bound to a regulatory site of PKA to expose an active site, such that the PKA activity is increased. In the present experiment, a change in PKA activity by azelaic acid was measured. The PKA activity was measured using an Enzo PKA kinase activity kit (Cat. #ADI-EKS-390A, Enzo Life Sciences, Korea)."}, "[3]": {"tested_on": "3T3-L1 adipocytes", "assay": "Intracellular triglyceride concentration (TG assay kit) in 3T3-L1 adipocytes", "type": "cell-based, mouse", "method": "(§1) In order to confirm whether or not azelaic acid induces triglyceride hydrolysis in adipocytes by activating a cAMP-PKA-HSL signaling pathway, the adipocytes were directly treated with azelaic acid, and concentrations of intracellular lipids were measured. […] Then, a concentration of triglycerides was measured using a TG assay kit (BioVision, California, U.S.) and a concentration of cholesterol was measured using an Amplex Red cholesterol assay kit (Invitrogen, California, U.S.)."}, "[4]": {"tested_on": "3T3-L1 adipocytes", "assay": "Intracellular cholesterol concentration (Amplex Red kit) in 3T3-L1 adipocytes", "type": "cell-based, mouse", "details": "azelaic acid 25 or 50 μM", "method": "as §1"}, "[5]": {"tested_on": "3T3-L1 adipocytes in which the Olfr544 gene was knocked-down", "assay": "Lipolysis (glycerol) in adipocytes in which Olfr544 gene was knocked-down", "type": "cell-based, mouse", "details": "Olfr544 shRNA transfected adipocytes treated with azelaic acid for 2 hours", "method": "After the Olfr544 gene was knocked-down in the mouse adipocytes, the adipocytes were treated with azelaic acid, and whether or not a triglyceride hydrolysis effect of azelaic acid was maintained was confirmed."}, "[6]": {"target": "T1, OR2K2 (Homo sapiens, UniProt Q8NGT1)", "T1 construct": "endogenous in cells; host or cells: HepG2", "T1 sequence (Q8NGT1 1-316)": "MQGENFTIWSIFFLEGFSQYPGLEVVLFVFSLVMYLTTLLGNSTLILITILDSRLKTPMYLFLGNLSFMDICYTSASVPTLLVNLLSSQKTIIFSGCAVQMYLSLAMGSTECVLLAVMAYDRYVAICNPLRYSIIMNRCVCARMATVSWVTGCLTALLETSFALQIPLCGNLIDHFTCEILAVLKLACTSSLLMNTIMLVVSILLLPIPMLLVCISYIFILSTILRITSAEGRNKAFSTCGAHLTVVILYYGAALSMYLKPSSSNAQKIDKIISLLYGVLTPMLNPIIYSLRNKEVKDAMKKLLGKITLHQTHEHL", "assay": "siRNA knock-down of OR2K2 in hAMSC cells, lipolysis", "type": "cell-based", "details": "treated with azelaic acid", "excerpt": "The gene expression of OR1E1, OR1K1, OR2K2, OR2S2, OR13C5, and OR51E2, corresponding to the top 6 receptors among 10 human olfactory receptors selected to be expressed in both adipose tissue and liver tissue while interacting with azelaic acid, was knocked down with siRNA in human-derived liver cell and adipocyte lines, namely HepG2 cells and hAMSC cells, respectively. Here, siRNAs that were used were OR1E2 siRNA (sc-93932), OR1K2 (sc-92810), OR2K2 (sc-92852), OR2S2 (sc-92505), OR13C5 (sc-92899), and OR51E2 (sc-76265), purchased from Santa Cruz Biotechnology Inc. (Dallas, Tx USA).\nAfter knock-down treatment, the cell lines were treated with azelaic acid, and triglyceride hydrolysis and fatty acid oxidation-related gene expression in HepG2 cells as a human-derived liver cell line and hAMSC cells as a human-derived adipocyte line were measured."}, "[7]": {"tested_on": "hAMSC cells", "assay": "qPCR of anti-obesity gene in hAMSC cells, with OR2K2 knock-down", "type": "cell-based, human", "method": "In-vitro equivalence confirmation: HepG2 cells, which are a human liver tissue cell line, and hAMSC cells, which are a human adipocyte line, were treated with azelaic acid and the anti-obesity gene was measured through a qPCR method."}, "[8]": {"assay": "Dose evaluation experiment, oral administration, body weight control", "type": "in vivo", "details": "6 mg/kg of azelaic acid, 6 weeks", "method": "Azelaic acid was orally administered for 6 weeks, and the body weight control effects of three doses (6, 17, 20 mg/kg) were compared. The commercially available anti-obesity drugs Xenical and Panbesy were used as positive controls. […] Similar results were also obtained when a secondary experiment was performed to confirm the results."}}, "note": "“Also recorded” adds a separate entry of the source."}
{"compound": "O=C(O)CCCCCCCC(=O)O", "note": "[azelaic acid, nonanedioic acid]", "values": [{"measurement": "cytotoxicity (MTT assay)", "setting": "[1]", "value": "cytotoxicity was not observed; also recorded: toxicity was not exhibited"}, {"measurement": "PKA activity increased as compared to a control", "setting": "[2]", "value": 113.8, "unit": "%"}, {"measurement": "concentration of intracellular triglycerides decreased as compared to a control", "setting": "[3]; 3T3-L1 adipocytes, 50 μM azelaic acid, 2 hours", "value": 61.5, "unit": "%"}, {"measurement": "concentration of triglycerides in the 3T3-L1 adipocytes", "setting": "[3]; azelaic acid 25 or 50 μM", "value": "significantly and concentration-dependently decreased"}, {"measurement": "concentration of intracellular cholesterol", "setting": "[4]", "value": "no significant change"}, {"measurement": "concentration of glycerol", "setting": "[5]", "value": "no change"}, {"measurement": "lipolytic effect, knock-down group compared to control group", "setting": "[6]", "value": "statistically significantly decreased"}, {"measurement": "expression of a triglyceride hydrolysis gene (qPCR)", "setting": "[7]; adipocytes (hAMSC) treated with azelaic acid", "value": "increased"}, {"measurement": "effect on gene expression when the OR2K2 gene was knocked down", "setting": "[7]; human adipocyte line (hAMSC)", "value": "disappear"}, {"measurement": "body weight", "setting": "[8]", "value": "Significant body weight reduction efficacy"}]}
